In patent US20230266302A1, “SYNTHESIS AND USE OF N-BENZYL SULFONAMIDES” (THE UNIVERSITY OF TULSA, priority 2020, published 2023):

Key:
Assay in all cases: ATP level assay (CellTiter-Glo), percent of control
Format in all cases: cell-based
MDA-MB (breast cancer) = settings: two hour incubation; for activity at 100 µM: 2 h, compound alone, control DMSO, read-out: POC (percent of control) MDA-MB
Text: (§1) In the present method, the method of using the available assays has been modified to measure the short-term effect of compounds of interest on ATP levels in the cells. […] In the modified method, the control and test cells are initially treated with the metabolic inhibitor for a period of about thirty minutes to about four hours. Typically, the treatment of the cells with the metabolic inhibitor is for one hour prior to adding the compound to be screened for anti-cancer properties. However, simultaneous treatment with the metabolic inhibitor and the compound being screened should provide satisfactory results. […] ATP synthesis in cells occurs over multiple biochemical pathways. These pathways are very responsive to metabolic inhibitors and/or changes in available nutrients. By incorporating a metabolic inhibitor which is known to impact certain pathways, the disclosed method provides for measurement of a compound's direct effects on the remaining metabolic pathways available for ATP synthesis in the cell.
(§2) Following treatment of the control and test cells with the metabolic inhibitor, the method calls for addition of the compound to be screened for anti-cancer properties to the cells. Following addition of the compound of interest, the assay is allowed to continue for about one hour to about four hours or depending on the luminescing agent up to eighteen hours. However, approximately 60 minutes will be sufficient to determine the ATP inhibiting effect of the compound to be screened on the cells. Following completion of the selected time period, the ATP level within the cell is determined. ATP levels can be determined by luminescence according to standard measuring procedures, i.e. the luminescence level of the assay from the living cells treated with the two component composition is compared to the luminescence level of the assay from the living cells without the two component composition, i.e., the control experiment. Thus, the ATP levels are determined without killing the cells during the incubation of the cells in the presence of the compound of interest. As a result, the measured reduction in ATP level corresponds directly to the inhibition of the metabolic pathways uninhibited by the metabolic blocker.
(§3) A wide variety of ATP luminescing detection reagents are available commercially. So long as the reagent produces a luminescence in the presence of ATP, the reagent will be suitable for use in the present method. Suitable reagents include but are not limited to any ATP dependent luciferase such as but not limited to firefly luciferase, other modified luciferase based reagents, i.e. luciferase derivatives. According to the rapid method for determining the anti-cancer activity of a compound, a sample of living cells is distributed across a number of testing wells. Typically, 96-well plates are used; however, the number of wells is not critical to the current method. When using a 96-well plate the number of living cells will commonly be about 20,000. The sample wells contain a cell growth medium to promote cell health and growth and an additive to prevent bacterial contamination of the wells. One common example of the cell growth medium is DMEM with 10% FBS as described above. One example of the additive to prevent bacterial contamination is a solution of penicillin G and streptomycin referred to commonly as Pen-Strep. The Pen-Strep solution typically contains 5000 units of penicillin G and 5000 micrograms of streptomycin. Thus, the rapid determination of anti-cancer compounds can be carried out using the following method. • The desired number of cells are distributed in a 96-well plate containing 100 μL DMEM plus 10% FBS with optional Pen-Strep. • After 24 hours, cells are treated with the compound of interest or a 5% solution of dimethyl sulfoxide (DMSO) in water as a control. • The time period for exposure to the compound of interest and the DMSO control will vary depending on the luminescing detection reagent. […]

[1] = system: BxPC3 (pancreatic cancer); settings: two hour incubation; for activity at 100 µM: Homo sapiens, BXPC-3, 2 h, compound alone, control DMSO, read-out: POC (percent of control) BxPC3
Text: as §1, §2, §3

H293 (kidney cancer) = settings: two hour incubation; for activity at 100 µM: 2 h, compound alone, control DMSO, read-out: POC (percent of control) H293
Text: as §1, §2, §3

[2] = system: MCF10A (non-cancerous breast); settings: two hour incubation; for activity at 100 µM: Homo sapiens, MCF-10A, 2 h, compound alone, control DMSO, read-out: POC (percent of control) MCF10A
Text: as §1, §2, §3

NCI-H196 (lung cancer) = settings: two hour incubation; for activity at 100 µM: NCI-H196, 2 h, compound alone, control DMSO, read-out: POC (percent of control) NCI-H196
Text: as §1, §2, §3

MCF7 (breast cancer) = settings: two hour incubation; for activity at 100 µM: Homo sapiens, MCF7, 2 h, compound alone, control DMSO, read-out: POC (percent of control) MCF7
Text: as §1, §2, §3

HDF (normal cells) = settings: two hour incubation; for activity at 100 µM: 2 h, compound alone, control DMSO, read-out: POC (percent of control) HDF
Text: as §1, §2, §3

PC3 (prostate cancer) = settings: two hour incubation; for activity at 100 µM: 2 h, compound alone, control DMSO, read-out: POC (percent of control) PC3
Text: as §1, §2, §3

SkBr3 (breast cancer) = settings: two hour incubation; for activity at 100 µM: Homo sapiens, SK-BR-3, 2 h, compound alone, control DMSO, read-out: POC (percent of control) SkBr3
Text: as §1, §2, §3

HeLa (cervical cancer) = settings: two hour incubation; for activity at 100 µM: Homo sapiens, HeLa, 2 h, compound alone, control DMSO, read-out: POC (percent of control) HeLa
Text: as §1, §2, §3

T47D (breast cancer) = settings: two hour incubation; for activity at 100 µM: Homo sapiens, T47D, 2 h, compound alone, control DMSO, read-out: POC (percent of control) T47D
Text: as §1, §2, §3

[3] = compound 100 uM + 2DG (about 10-20 mM)
[4] = compound 100 uM + rotenone (approximately 1.25 μM)

SMILES	activity at 100 µM (MDA-MB (breast cancer)) [%]	POC (percent of control) MDA-MB (MDA-MB (breast cancer); [3])	POC (percent of control) MDA-MB (MDA-MB (breast cancer); [4])	activity at 100 µM [1] [%]	POC (percent of control) BxPC3 [1, 3]	POC (percent of control) BxPC3 [1, 4]	activity at 100 µM (H293 (kidney cancer)) [%]	POC (percent of control) H293 (H293 (kidney cancer); [3])	POC (percent of control) H293 (H293 (kidney cancer); [4])	activity at 100 µM [2] [%]	POC (percent of control) MCF10A [2, 3]	POC (percent of control) MCF10A [2, 4]	activity at 100 µM (NCI-H196 (lung cancer)) [%]	POC (percent of control) NCI-H196 (NCI-H196 (lung cancer); [3])	POC (percent of control) NCI-H196 (NCI-H196 (lung cancer); [4])	activity at 100 µM (MCF7 (breast cancer)) [%]	POC (percent of control) MCF7 (MCF7 (breast cancer); [3])	POC (percent of control) MCF7 (MCF7 (breast cancer); [4])	activity at 100 µM (HDF (normal cells)) [%]	POC (percent of control) HDF (HDF (normal cells); [3])	also measured
CS(=O)(=O)NCc1c[nH]c2ccccc12 [Compound 26, N-(1H-indol-3-ylmethyl)methanesulfonamide]	90.2	87.6% of control	79.2% of control	99.1	86.6% of control	88.8% of control	110	72.9% of control	72% of control	106	99.9% of control	81% of control	220	91.3% of control	80.8% of control	114	95.9% of control	119.8% of control	106	91.1% of control	POC (percent of control) HDF (HDF (normal cells); [4]): 86.9% of control; activity at 100 µM (PC3 (prostate cancer)): 92.3%; POC (percent of control) PC3 (PC3 (prostate cancer); [3]): 111.5% of control; POC (percent of control) PC3 (PC3 (prostate cancer); [4]): 89.6% of control; activity at 100 µM (SkBr3 (breast cancer)): 109%; POC (percent of control) SkBr3 (SkBr3 (breast cancer); [3]): 95.7% of control; POC (percent of control) SkBr3 (SkBr3 (breast cancer); [4]): 97.1% of control; activity at 100 µM (HeLa (cervical cancer)): 90.4%; POC (percent of control) HeLa (HeLa (cervical cancer); [3]): 106.9% of control; POC (percent of control) HeLa (HeLa (cervical cancer); [4]): 96.3% of control; activity at 100 µM (T47D (breast cancer)): 93.3%; POC (percent of control) T47D (T47D (breast cancer); [3]): 101% of control; POC (percent of control) T47D (T47D (breast cancer); [4]): 90.8% of control
O=S(=O)(NCc1ccco1)c1ccc(Cl)cc1 [Compound 20, 4-chloro-N-(furan-2-ylmethyl)benzenesulfonamide]	97.4	82.9% of control	98.5% of control	95.8	86.4% of control	94.8% of control	104	84.4% of control	69.4% of control	102	78.1% of control	102.9% of control	100	90.6% of control	102.1% of control	138	87.3% of control	124.6% of control	90.9	88.1% of control	POC (percent of control) HDF (HDF (normal cells); [4]): 103.1% of control; activity at 100 µM (PC3 (prostate cancer)): 91.1%; POC (percent of control) PC3 (PC3 (prostate cancer); [3]): 83.8% of control; POC (percent of control) PC3 (PC3 (prostate cancer); [4]): 100.4% of control; activity at 100 µM (SkBr3 (breast cancer)): 104%; POC (percent of control) SkBr3 (SkBr3 (breast cancer); [3]): 96.7% of control; POC (percent of control) SkBr3 (SkBr3 (breast cancer); [4]): 102.5% of control; activity at 100 µM (HeLa (cervical cancer)): 103%; POC (percent of control) HeLa (HeLa (cervical cancer); [3]): 91.7% of control; POC (percent of control) HeLa (HeLa (cervical cancer); [4]): 117.2% of control; activity at 100 µM (T47D (breast cancer)): 73.9%; POC (percent of control) T47D (T47D (breast cancer); [3]): 69.7% of control; POC (percent of control) T47D (T47D (breast cancer); [4]): 101.6% of control
Cc1ccc(S(=O)(=O)NCc2coc(C)n2)cc1 [Compound 21, 4-methyl-N-[(2-methyl-1,3-oxazol-4-yl)methyl]benzenesulfonamide]	101	100.7% of control	121.5% of control	112	106.8% of control	114.8% of control	115	87.8% of control	87% of control	108	92.8% of control	120% of control	108	107.4% of control	130.5% of control	189	121.1% of control	111% of control	87.9	97.4% of control	POC (percent of control) HDF (HDF (normal cells); [4]): 113.6% of control; activity at 100 µM (PC3 (prostate cancer)): 93.3%; POC (percent of control) PC3 (PC3 (prostate cancer); [3]): 131.7% of control; POC (percent of control) PC3 (PC3 (prostate cancer); [4]): 110.9% of control; activity at 100 µM (SkBr3 (breast cancer)): 102%; POC (percent of control) SkBr3 (SkBr3 (breast cancer); [3]): 108.5% of control; POC (percent of control) SkBr3 (SkBr3 (breast cancer); [4]): 106.9% of control; activity at 100 µM (HeLa (cervical cancer)): 101%; POC (percent of control) HeLa (HeLa (cervical cancer); [3]): 105.8% of control; POC (percent of control) HeLa (HeLa (cervical cancer); [4]): 109.4% of control; activity at 100 µM (T47D (breast cancer)): 88.7%; POC (percent of control) T47D (T47D (breast cancer); [3]): 99.4% of control; POC (percent of control) T47D (T47D (breast cancer); [4]): 86.4% of control
